Laboratory results: article PMC6433232, “Targeting mitochondria in cancer therapy could provide a basis for the selective anti-cancer activity” (PLoS ONE, 2019)
Where two headings read alike, the source gives them in different places.

Tests used:
[1] = test system: breast carcinoma HCC1187 cells; assay: cells; format: cell-based; settings: for CC50: Homo sapiens; for Selective cytotoxicity index HCC 1187 ATO: human
Excerpt: For further analyses, we used compounds that have the selective cytotoxicity index either above 20 (non-toxic compounds) or below 1 (toxic compounds) with the aim to identify targets that are responsible for the selective activity of the identified compounds toward cancer cells. To confirm that the effects of the selected compounds are not only specific to MIA PaCa-2 cells, we evaluated their cytotoxic activities on breast carcinoma HCC1187 cells (Table 1). […] For easy comparison, the data with MIA PaCa-2 cells were also included in Table 1. […] We also noticed that, again with a few exceptions, HCC1187 cells are more resistant to the non-toxic compounds in the presence of ATO as compared to MIA PaCa-2 cells. In contrast, HCC1187 cells are more sensitive to all toxic compounds in the presence of ATO as compared to MIA PaCa-2 cells. The high sensitivity of HCC1187 cells to toxic compounds contributed to the increased selective cytotoxicity index.

MIA PaCa-2 cells = assay: Hydrogen peroxide cell-based assay (ROS induction), MIA PaCa-2 cells; settings: Homo sapiens, hydrogen peroxide level relative to DMSO-treated cells (100%), read-out: ROS increase, % MIA PaCa-2
Method: Cells were incubated for 2 h with either compounds (30 μM) or DMSO in a 96-well plate. After the treatment, 80 μl of cell culture medium was collected and the level of hydrogen peroxide was determined using a Hydrogen Peroxide Cell-Based Assay kit (Cayman).
Cells were incubated with the compounds for 4 h and the level of ROS induction was measured by a hydrogen peroxide cell-based assay kit. Compounds were assayed at a fixed concentration of 30 μM and the measured level of hydrogen peroxide was expressed as percentage in relation to DMSO-treated cells (100%). […] This distinction was more evident for compounds with the highest selective cytotoxicity index. […] We conclude that the selective induction of ROS in cancer cells is required but not sufficient factor for the selective anti-tumor activity.

[2] = test system: Recombinant NADH/NADPH dehydrogenase; assay: NADH/NADPH dehydrogenase-mediated ROS generation assay; format: biochemical; settings: 30 μM, 4 h at 37°C; for H2O2 generation, NADH/NADPH dehydrogenase -: absence of NADH/NADPH dehydrogenase; for H2O2 generation, NADH/NADPH dehydrogenase +: presence of NADH/NADPH dehydrogenase
Method: Recombinant NADH/NADPH dehydrogenase (0.5 units/well) in a 96-well plate was incubated in 100 μl of the assay buffer (50 mM potassium phosphate buffer, pH 7.5 supplemented with 1 mM EDTA) containing NADPH (3 μM) and superoxide dismutase (SOD) (100 units/well) with and without compound (30 μM) for 4 h at 37°C. At the end of incubation, the level of hydrogen peroxide was measured using a Hydrogen Peroxide Assay kit (Cayman). Control samples were without NADH/NADPH dehydrogenase. The rate of NADH/NADPH dehydrogenase- and compound-mediated ROS production was determined by subtracting values that were obtained in the absence of NADPH dehydrogenase. One unit of NADH/NADPH dehydrogenase was defined as the amount of enzyme required to reduce 1.0 μmole cytochrome C per min/mg in the presence of menadione substrate at 37°C. One unit of SOD was defined as the amount of enzyme required to inhibit reduction of cytochrome C by 50% in a coupled system with xanthine oxidase at pH 7.8 at 25°C in a 3.0 mL reaction volume. Xanthine oxidase concentration should produce an initial ΔA550 of 0.025 ± 0.005 per min.
As the next step, we examined the capability of the selected compounds to generate ROS in the presence or absence of NADH/NADPH dehydrogenase (Table 1). ROS can be generated by NADH/NADPH-dehydrogenase via the one electron reduction of a quinone ring of 1,4-NQs. Unstable half-reduced quinones (semiquinones) transfer electrons to molecular oxygen, thus generating superoxide anion radicals (O2^●-), which are converted by SOD to hydrogen peroxide. We believe that our assay measuring compound’s ability to generate H2O2 in the presence or absence of NADH/NADPH dehydrogenase more closely resembles conditions inside the cell than the assay designed to measure compound’s redox potential values. […] To determine the ability of compounds to induce ROS, compounds were incubated for 4 h at 37°C with and without NADH/NADPH-dehydrogenase in the presence of NADPH as an electron donor and SOD to convert generated superoxide radicals into hydrogen peroxide. At the end of incubation, 10-acetyl-3,7-dihydroxyphenoxazine (ADHP) and horseradish peroxidase (HRP) were added to the reaction and the level of HRP-mediated formation of the fluorogenic product, resorufin, was measured on a plate reader. ROS production was detected in reactions with either the toxic or non-toxic compounds.

[3] = Distribution coefficient LogD; format: physicochemical; settings: pH 7.4
Excerpt: We conclude that the analysis of the octanol-water partitioning is not sufficient to establish a link between degree of lipophilicity and biological activities of the selected compounds.

[4] = test system: human primary hepatocytes; assay: cells; settings: Hepatocyte
Excerpt: (§1) We selected hepatocytes as normal cells because hepatocytes are mediate toxicity to multiple drugs and are used as a standard to assess toxicity of drugs in vitro [28]. […] For comparison with the standard of care, doxorubicin was also included in this analysis.

in vitro = settings: human
Excerpt: as §1

[5] = test system: Complex I (bovine heart mitochondria); assay: MitoCheck Complex I activity assay; settings: 30 μM; for Mito Check I, enzyme residual activity as compared to DMSO-treated sample: bovine heart mitochondria, NADH oxidation
Method: MitoCheck Complex I activity was determined as described in the manual of the manufacturer’s manual (Cayman). Briefly, compounds (30 μM) or DMSO were mixed with the Complex I activity assay buffer that contained bovine heart mitochondria reagent, NADH, and ubiquinone in the presence of KCN to inhibit complex IV activity. The level of Complex I activity was monitored in a kinetic assay of NADH oxidation by measuring a decrease in absorbance at 340 nm. The residual Complex I activity was calculated by dividing the rate of compound wells by the rate of DMSO wells for the linear portion of the curve.
To test possible effects of compounds on ETC, we analyzed the Complex I-mediated NADH oxidation using a MitoCheck Complex I Activity Assay Kit. The level of NADH oxidation was measured by a decrease in absorbance at 340 nm and expressed as percentage of residual activity in relation to DMSO-treated mitochondria (Table 1). […] Complex I activity was estimated by the rate of NADH oxidation which was also affected by NADH/NADPH-dehydrogenase-mediated redox cycling.

[6] = HCC1187, compound alone, unit not given in Table 1, read-out: LC50 HCC1187
[7] = octanol/water, read-out: LogD, pH = 7.4
[8] = HCC1187, read-out: LC50 HCC1187

| SMILES | CC50 [1, 6] [µM] | activity at 30 µM (MIA PaCa-2 cells) [%] | H2O2 generation, NADH/NADPH dehydrogenase - [2] [µM] | H2O2 generation, NADH/NADPH dehydrogenase + [2] [µM] | logD [3, 7] | EC50 ([4]; read-out: EC50, μM Hepatocytes) [µM] | CC50 (in vitro; primary hepatocytes) [µM] | stimulation of Complex I activity [5] | Mito Check I, enzyme residual activity as compared to DMSO-treated sample [5] [%] | CC50 [1, 8] [µM] | Selective cytotoxicity index HCC 1187 ATO [1] | logD [3] | CC50 (in vitro) [µM] | EC50 ([4]; read-out: EC50, toxicity to hepatocytes) [µM] | inhibition of mitochondrial function (Complex I) [5] [%] |
| --- | --- | --- | --- | --- | --- | --- | --- | --- | --- | --- | --- | --- | --- | --- | --- |
| NC1=C(Cl)C(=O)c2ccccc2C1=O [compound 1, 2-chloro-3-amino-1,4-NQ] | 10.8 | 331 | 4.1 | 7.6 | 2.01 | 17 | 17 | more than 30% | 145 |  |  |  |  |  |  |
| CCNC1=C(Cl)C(=O)c2ccccc2C1=O [compound 3] | 23.6 | 182 | 3.9 | 6.3 | 1.01 | 81.9 | 81.9 |  | 93 |  |  |  |  |  |  |
| CCCCCCCNC1=C(Cl)C(=O)c2ccccc2C1=O [compound 8] | 56.1 | 110 | 2.0 | 2.8 | 0.17 | 78.6 | 78.6 |  | 116 |  |  |  |  |  |  |
| CC(C)(C)NC1=C(Cl)C(=O)c2ccccc2C1=O [compound 13] | 28.7 | 248 | 2.7 | 4.3 | 0.52 | 29.9 | 29.9 |  | 84 |  |  |  |  |  |  |
| CC1CN1C1=C(Cl)C(=O)c2ccccc2C1=O (centres unmarked) [compound 16] |  | 637 | 2.1 | 3.8 |  | 78 |  |  | 58 | 3.6 | 128.6 | 0.7 | 78 |  |  |
| O=C1C(Cl)=C(NCCO)C(=O)c2ccccc21 [compound 17] | 19.2 | 295 | 2.6 | 4.8 | 1.12 | 83 | 83 |  | 38 |  | 46.7 |  |  |  |  |
| COCCNC1=C(Cl)C(=O)c2ccccc2C1=O [compound 21] | 5.2 | 254 | 6.5 | 6.4 | 0 | 60.4 | 60.4 |  | 104 |  |  |  |  |  |  |
| CCCCOCCCNC1=C(Cl)C(=O)c2ccccc2C1=O [compound 26] | 1.7 | 889 | 5.9 | 3.8 | 0 | 4.8 | 4.8 |  | 112 |  |  |  |  | 3.6 |  |
| O=C1C(Cl)=C(NCCc2ccccc2)C(=O)c2ccccc21 [compound 36] |  | 721 | 7.0 | 6.3 | 0 | 8.8 | 8.8 | more than 30% | 135 |  |  |  |  |  |  |
| O=C1C(Cl)=C(Nc2ccccc2)C(=O)c2ccccc21 [compound 39] | 1.7 |  | 1.6 | 2.8 | 0.13 | 2.3 | 2.3 |  | 91 |  |  |  |  |  | 9 |
| COC1=C(N(C)C)C(=O)c2ccccc2C1=O [compound 53] | > 90 | 446 | 1.5 | 2.5 | 0 | > 90 |  |  | 51 |  | 9.5 |  |  |  |  |
| COC1=C(N2CC2)C(=O)c2ccccc2C1=O [compound 54] |  | 675 | 2.4 | 3.9 |  | > 90 |  |  | 84 | 18.2 | 40.9 | 0.31 |  |  |  |
| O=C1C=C(SCCO)C(=O)c2ccccc21 [compound 60] | 0.6 |  | 6.9 | 12.7 | 2.99 | 3.3 | 3.3 | more than 30% | 212 |  |  |  |  |  |  |
| CCNC1=CC(=O)c2ncccc2C1=O [compound 66] | 13.2 | 626 | 5.4 | 10.3 | 2.87 | > 90 |  | more than 30% | 158 |  |  |  |  |  |  |
